Values after ≈ are worked out from the molar mass of the structure shown.
test: Compound solubility in water; format: physicochemical

solubility [µg/mL] | Structure (SMILES)
0.4 (≈ 1.07 µM) | Cc1cc(-c2ccccn2)nc2c(C(=O)NC(C3CC3)C(F)(F)F)cnn12 (stereo not shown) [III-36]
2.1 (≈ 5.36 µM) | Cc1cc(-c2cccnc2)nc2c(C(=O)N[C@H](C)c3ccc(Cl)cc3)cnn12 [III-37]
18.2 (≈ 44.7 µM) | Cc1cc(-c2cccnc2)nc2c(C(=O)N[C@H]3CC[C@H](OC(C)(C)C)CC3)cnn12 [III-38]
4.4 (≈ 10.8 µM) | Cc1cc(-c2cccnc2)nc2c(C(=O)N[C@H]3CC[C@H](OCC(C)C)CC3)cnn12 [III-39]
20 (≈ 50.8 µM) | CCCO[C@H]1CC[C@H](NC(=O)c2cnn3c(C)cc(-c4cccnc4)nc23)CC1 [III-40]
1.9 (≈ 5.03 µM) | Cc1cc(-c2cccnc2)nc2c(C(=O)NC(C(C)C)C(F)(F)F)cnn12 (stereo not shown) [III-41]
15.1 (≈ 41.6 µM) | CCC(NC(=O)c1cnn2c(C)cc(-c3cccnc3)nc12)C(F)(F)F (stereo not shown) [III-42]
12.1 (≈ 34.6 µM) | Cc1cc(-c2cccnc2)nc2c(C(=O)NC(C)C(F)(F)F)cnn12 (stereo not shown) [III-43]
3 (≈ 8.49 µM) | Cc1cc(NC2CC2)nc2c(C(=O)NC(C3CC3)C(F)(F)F)cnn12 (stereo not shown) [III-44]
10.2 (≈ 30.7 µM) | Cc1cc(Cl)nc2c(C(=O)NC(C3CC3)C(F)(F)F)cnn12 (stereo not shown) [III-45]
3.4 (≈ 9.23 µM) | COCc1cc(-c2ccc(F)cc2)nc2c(C(=O)N[C@@H](C)C3CC3)cnn12 [III-46]
0.3 (≈ 0.784 µM) | COCc1cc(-c2ccc(F)cc2)nc2c(C(=O)NC(C)(C)C3CC3)cnn12 [III-47]
19.8 (≈ 59 µM) | CCc1cc(-c2ccccn2)n2ncc(C(=O)NC(C)C3CC3)c2n1 (stereo not shown) [III-48]
2.5 (≈ 7.45 µM) | CCc1cc(-c2ccccn2)nc2c(C(=O)NC(C)C3CC3)cnn12 (stereo not shown) [III-49]
1.6 (≈ 4.58 µM) | Cc1cc(-c2ccccn2)nc2c(C(=O)NC(C)C(F)(F)F)cnn12 (stereo not shown) [III-50]
14.1 (≈ 38.8 µM) | CCc1cc(-c2ccccn2)n2ncc(C(=O)NC(C)C(F)(F)F)c2n1 (stereo not shown) [III-51]
2.4 (≈ 6.61 µM) | CCc1cc(-c2ccccn2)nc2c(C(=O)NC(C)C(F)(F)F)cnn12 (stereo not shown) [III-52]

solubility [µg/mL] | Structure (SMILES)
1.7 (≈ 4.49 µM) | COc1cccc(-c2cc(C)n3ncc(C(=O)NC(C)C(F)(F)F)c3n2)c1 (stereo not shown) [III-55]
1.1 (≈ 3.25 µM) | Cc1cc(-c2cccc(F)c2)nc2c(C(=O)N[C@@H](C)C3CC3)cnn12 [III-56]
2.7 (≈ 7.7 µM) | COc1cccc(-c2cc(C)n3ncc(C(=O)N[C@@H](C)C4CC4)c3n2)c1 [III-57]
20.1 (≈ 61 µM) | Cc1cc(N2CCOCC2)nc2c(C(=O)NC(C)C3CC3)cnn12 (stereo not shown) [III-58]
10.3 (≈ 30 µM) | Cc1cc(N2CCOCC2)nc2c(C(=O)NC(C)(C)C3CC3)cnn12 [III-59]
4.4 (≈ 12.1 µM) | Cc1cc(N2CCC(F)(F)CC2)nc2c(C(=O)NC(C)C3CC3)cnn12 (stereo not shown) [III-60]
5.5 (≈ 15.1 µM) | Cc1cc(N2CCCC(F)(F)C2)nc2c(C(=O)NC(C)C3CC3)cnn12 (stereo not shown) [III-61]
1.2 (≈ 3.24 µM) | Cc1cc(-c2cccc(Cl)n2)nc2c(C(=O)NC(C)(C)C3CC3)cnn12 [III-62]
0.2 (≈ 0.565 µM) | C#CC(C)(C)NC(=O)c1cnn2c(C)cc(-c3cccc(Cl)n3)nc12 [III-63]
6.2 (≈ 16.2 µM) | Cc1cc(-c2cccc(Cl)c2)nc2c(C(=O)NC(C)C(F)(F)F)cnn12 (stereo not shown) [III-64]
0.9 (≈ 2.54 µM) | Cc1cc(-c2cccc(Cl)c2)nc2c(C(=O)N[C@@H](C)C3CC3)cnn12 [III-65]
0.3 (≈ 0.719 µM) | Cc1cc(N2CCCC(F)(F)C2)nc2c(C(=O)NC(C3CC3)C(F)(F)F)cnn12 (stereo not shown) [III-66]
1.9 (≈ 4.71 µM) | Cc1cc(N2CCC(F)(F)C2)nc2c(C(=O)NC(C3CC3)C(F)(F)F)cnn12 (stereo not shown) [III-67]
11.9 (≈ 36.5 µM) | Cc1cc(C(F)(F)F)nc2c(C(=O)NC(C)(C)C3CC3)cnn12 [III-68]
0.5 (≈ 1.44 µM) | C#CC(C)(C)NC(=O)c1cnn2c(C)cc(-c3cccc(OC)c3)nc12 [III-69]
2.1 (≈ 6.08 µM) | Cc1cc(-c2cccc(C#N)c2)nc2c(C(=O)N[C@@H](C)C3CC3)cnn12 [III-70]
0.5 (≈ 1.39 µM) | Cc1cc(-c2cccc(C#N)c2)nc2c(C(=O)NC(C)(C)C3CC3)cnn12 [III-71]

More lines, now with the values behind:

Structure (SMILES) | solubility [µg/mL]
Cc1cc(C)n2ncc(C(=O)N[C@@H](C)C3CC3)c2n1 [III-1] | 27 (≈ 105 µM)
Cc1cc(C)n2ncc(C(=O)NC(C)(C)C3CC3)c2n1 [III-2] | 27.4 (≈ 101 µM)
Cc1cc(C)n2ncc(C(=O)N[C@H](C)C3CCCCC3)c2n1 [III-3] | 8.7 (≈ 29 µM)
Cc1cc(C)n2ncc(C(=O)N[C@@H](C)C3CCCCC3)c2n1 [III-4] | 16.1 (≈ 53.6 µM)
Cc1cc(C)n2ncc(C(=O)NC(CC(C)C)C3CC3)c2n1 (stereo not shown) [III-5] | 25.7 (≈ 85.6 µM)
CNc1cc(C)n2ncc(C(=O)N[C@@H](C)C3CC3)c2n1 [III-6] | 23.8 (≈ 87.1 µM)
Cc1cc(-c2ccc(F)cc2)nc2c(C(=O)N[C@@H](C)C3CC3)cnn12 [III-7] | 1.6 (≈ 4.73 µM)
Cc1cc(-c2ccc(F)cc2)n2ncc(C(=O)N[C@@H](C)C3CC3)c2n1 [III-8] | 0.5 (≈ 1.48 µM)
Cc1cc(C)n2ncc(C(=O)NC(C3CC3)C(F)(F)F)c2n1 (stereo not shown) [III-9] | 18 (≈ 57.6 µM)
Cc1cc(C)n2ncc(C(=O)N[C@H](C3CC3)C(F)(F)F)c2n1 [III-10] | 15.3 (≈ 49 µM)
Cc1cc(C)n2ncc(C(=O)N[C@@H](C3CC3)C(F)(F)F)c2n1 [III-11] | 13.4 (≈ 42.9 µM)
Cc1cc(C)n2ncc(C(=O)NC3(C4CC4)CC3)c2n1 [III-12] | 38.4 (≈ 142 µM)
Cc1cc(C)n2ncc(C(=O)NC(C)(C)C3CC4(CCC4)C3)c2n1 [III-13] | 0.3 (≈ 0.919 µM)
Cc1cc(Cl)n2ncc(C(=O)NC(C)(C)C3CC3)c2n1 [III-14] | 10.7 (≈ 36.5 µM)
Cc1cc(Cl)nc2c(C(=O)NC(C)(C)C3CC3)cnn12 [III-15] | 14.1 (≈ 48.2 µM)
Cc1cc(-c2ccccn2)nc2c(C(=O)NC(C)(C)C3CC3)cnn12 [III-16] | 1.1 (≈ 3.28 µM)
Cc1cc(-c2ccccn2)n2ncc(C(=O)NC(C)(C)C3CC3)c2n1 [III-17] | 2.2 (≈ 6.56 µM)

Structure (SMILES) | solubility [µg/mL]
Cc1cc(-c2cccnc2)nc2c(C(=O)NC(C)(C)C3CC3)cnn12 [III-18] | 17.4 (≈ 51.9 µM)
Cc1cc(-c2cccnc2)n2ncc(C(=O)NC(C)(C)C3CC3)c2n1 [III-19] | 5.3 (≈ 15.8 µM)
Cc1cc(-c2ccncc2)nc2c(C(=O)NC(C)(C)C3CC3)cnn12 [III-20] | 6.3 (≈ 18.8 µM)
Cc1cc(-c2ccncc2)n2ncc(C(=O)NC(C)(C)C3CC3)c2n1 [III-21] | 10 (≈ 29.8 µM)
Cc1cc(N2CCCCC2)n2ncc(C(=O)NC(C)(C)C3CC3)c2n1 [III-22] | 0.5 (≈ 1.46 µM)
Cc1cc(N2CCCCC2)nc2c(C(=O)NC(C)(C)C3CC3)cnn12 [III-23] | 6.8 (≈ 19.9 µM)
Cc1cc(-c2ccccn2)n2ncc(C(=O)N[C@@H](C)C3CC3)c2n1 [III-25] | 22.5 (≈ 70 µM)
Cc1cc(-c2cccnc2)n2ncc(C(=O)N[C@@H](C)C3CC3)c2n1 [III-27] | 18 (≈ 56 µM)
Cc1cc(-c2ccncc2)nc2c(C(=O)NC(C)C3CC3)cnn12 (stereo not shown) [III-28] | 27.6 (≈ 85.9 µM)
Cc1cc(-c2ccncc2)n2ncc(C(=O)N[C@@H](C)C3CC3)c2n1 [III-29] | 18.9 (≈ 58.8 µM)
Cc1cc(N2CCCCC2)n2ncc(C(=O)N[C@@H](C)C3CC3)c2n1 [III-30] | 4.7 (≈ 14.4 µM)
Cc1cc(N2CCCCC2)nc2c(C(=O)NC(C)C3CC3)cnn12 (stereo not shown) [III-31] | 43.5 (≈ 133 µM)
Cc1cc(-c2ccc(F)cc2)nc2c(C(=O)N[C@@H](C)C3CC3)c(Cl)nn12 [III-32] | 0.1 (≈ 0.268 µM)
Cc1cc(-c2ccc(F)cc2)n2nc(Cl)c(C(=O)N[C@@H](C)C3CC3)c2n1 [III-33] | 0.5 (≈ 1.34 µM)
Cc1cc(C)n2nc(Cl)c(C(=O)N[C@@H](C)C3CC3)c2n1 [III-34] | 10.3 (≈ 35.2 µM)
Cc1cc(-c2cccnc2)nc2c(C(=O)NC(C3CC3)C(F)(F)F)cnn12 (stereo not shown) [III-35] | 6.5 (≈ 17.3 µM)

— patent US9840510B1, “Pyrazolo[1,5-a]pyrimidinyl carboxamide compounds and their use in the treatment of medical disorders” (Lysosomal Therapeutics Inc., priority 2016, dated 2017)
